# Test system: Bmi-1 protein
# Experiment: Sandwich ELISA Assay: Bmi-1 protein level in HT-1080 cells treated with test compounds
# Type: cell-based
# Description: Cell Seeding and Compound Treatment (Day 1):
# HT-1080 cells were seeded at 8000 cells/well (50 μL) in 96-well tissue culture plates. After the cells became adherent (3-4 hours), 2× diluted stocks of test compounds in 50 μL DMEM containing 1% DMSO (final DMSO concentration was 0.5%) were added and the plates were incubated at 37° C. under 5% CO2 for 40-48 hours.
# ELISA Plate First Antibody Preparation (Day 2):
# The First Antibody (Millipore Mouse, monoclonal to mouse Bmi-1, clone F6, catalog #05-637) diluted to 2 μg/mL in PBS was added (100 μL) to each well of a Nunc MaxiSorp 96-well ELISA plate. The plate was covered with a plate seal and allowed to stand overnight.
# Cell Lysate Preparation (Day 3):
# Fresh Lysis buffer (1×) was prepared on the day of the assay as follows: 1 mM EDTA, 150 mM NaCl, 0.5% Triton-X 100, 10 mM NaF, 20 mM B-Glycerophosphate, 1 mM DTT (in PBS, pH 7.2-7.4) and HALT protease inhibitor cocktail (1×) (Pierce #78410).
# Lysis Buffer (1×, 40 μL) was added to each well and the plate was shaken for 5-10 minutes on an orbital shaker to allow cell lysis, then diluent (1% BSA in PBS in 0.5% NP40) (100 μL) was added to each well.
# A standard curve was prepared at the following Bmi-1 concentrations: 8000, 4000, 2000, 1000, 500, 250, 125 and 0 pg/mL. The Bmi-1 Recombinant Protein Standard (Novus Biologicals PCGF4 Recombinant Protein (P01), catalog # H00000648-P01) used to prepare the standard curve was stored at −80° C. On first thaw, the Recombinant Protein Standard was diluted to 10 μg/μL in Blocking Buffer (1% BSA in PBS; BSA: Fisher Scientific Catalog #1600-100). Aliquots were taken and refrozen at −80° C. The aliquots may be kept at 4° C. and reused after first thaw, but only within 1-2 weeks. The Recombinant Protein Standard contains a GST-fusion tag that appears at approximately 70 Kda on Western Blot.
# The prepared ELISA plate was washed 3× with Wash Buffer (0.05% Tween-20 in PBS). The final wash was removed from the plate and the plate was blotted dry. Blocking Buffer (300 μL) (1% BSA in PBS) was added to each well. The plate was covered with a plate seal and incubated at room temperature for 1 hour. The blocked plate was washed 3× with Wash Buffer, then the final wash was removed and the plate was blotted dry. The previously prepared samples and standards were added (100 μL/well) and the plate was covered with a plate seal and incubated at 4° C. overnight.
# The prepared ELISA plate was removed from incubation and allowed to stand at room temperature for 30 minutes, then washed and blotted dry. The Second Antibody (Cell Signaling Rabbit anti-Bmi-1, Cat# 2830) diluted to 1:600 in Blocking Buffer was added (100 μL) to each well, except as needed for background control wells. The plate was covered with a plate seal and incubated for 1.5 hrs at room temperature.
# The ELISA plate was washed and blotted dry as previously described. The Third Antibody (Cell Signaling HRP conjugated anti-rabbit IgG (CellSignaling, Cat#:7074) diluted to 1:300 in Blocking Buffer was added (100 μL) to each well, except as needed for background control wells. The plate was incubated for 1 hr at room temperature.
# The plate was washed and blotted dry, then a previously prepared TMB substrate (TMB substrate kit, Pierce catalog #34021) (prepared by mixing kit reagents 1:1) (100 μL) was added per well. The plate was incubated for 20-30 minutes at room temperature in the dark, then Stop Solution (2 M sulfuric acid in water) (50 μL) was added per well. The plates were read at OD450 (experimental) and OD570 (reference).
row,EC50 [nM],SMILES
1,10 to 100,"Cc1nc2ncc(Br)cc2n1-c1nc(N)nc(Nc2ccc(OC(F)F)cc2)n1 [Cpd 38, 6-(6-bromo-2-methyl-1H-imidazo[4,5-b]pyridin-1-yl)-N-[4-(difluoromethoxy)phenyl]-1,3,5-triazine-2,4-diamine]"
2,100 to 3000,"Cc1nc2ccccc2n1-c1nc(N)nc(Nc2ccc(Cl)c(F)c2)n1 [Cpd 197, N-(4-chloro-3-fluorophenyl)-6-(2-methyl-1H-benzimidazol-1-yl)-1,3,5-triazine-2,4-diamine]"
3,10 to 100,"Nc1nc(Nc2ccc(C(F)(F)F)cc2)nc(-c2c(C(F)(F)F)nc3ccc(F)cn23)n1 [Cpd 25, 6-[6-fluoro-2-(trifluoromethyl)imidazo[1,2-a]pyridin-3-yl]-N-[4-(trifluoromethyl)phenyl]-1,3,5-triazine-2,4-diamine]"
4,100 to 3000,"Cc1nc2ccc(F)cc2n1-c1nc(N)nc(Nc2ccc(OC(F)(F)F)cc2)n1 [Cpd 172, 6-(6-fluoro-2-methyl-1H-benzimidazol-1-yl)-N-[4-(trifluoromethoxy)phenyl]-1,3,5-triazine-2,4-diamine]"
5,100 to 3000,"Cc1nc2cc(F)c(F)cc2n1-c1nc(N)nc(Nc2ccc(Cl)cc2)n1 [Cpd 196, N-(4-chlorophenyl)-6-(5,6-difluoro-2-methyl-1H-benzimidazol-1-yl)-1,3,5-triazine-2,4-diamine]"
6,10 to 100,"Nc1nc(Nc2ccc(OC(F)F)cc2)nc(-n2c(C3CC3)nc3cc(F)ccc32)n1 [Cpd 66, 6-(2-cyclopropyl-5-fluoro-1H-benzimidazol-1-yl)-N-[4-(difluoromethoxy)phenyl]-1,3,5-triazine-2,4-diamine]"
7,100 to 3000,"CCc1nc2ccccc2n1-c1nc(N)nc(Nc2ccc(C#N)cc2)n1 [Cpd 163, 4-{[4-amino-6-(2-ethyl-1H-benzimidazol-1-yl)-1,3,5-triazin-2-yl]amino}benzonitrile]"
8,10 to 100,"Nc1nc(Nc2ccc(OC(F)F)cc2)nc(-n2c(C3CC3)nc3ccc(F)cc32)n1 [Cpd 63, 6-(2-cyclopropyl-6-fluoro-1H-benzimidazol-1-yl)-N-[4-(difluoromethoxy)phenyl]-1,3,5-triazine-2,4-diamine]"
9,100 to 3000,"Cc1nc2c(F)cc(F)cc2n1-c1nc(N)nc(Nc2ccc(C(F)(F)F)cc2)n1 [Cpd 46, 6-(4,6-difluoro-2-methyl-1H-benzimidazol-1-yl)-N-[4-(trifluoromethyl)phenyl]-1,3,5-triazine-2,4-diamine]"
10,100 to 3000,"N#CCc1nc2ccccc2n1-c1nc(N)nc(Nc2ccc(OC(F)F)c(F)c2)n1 [Cpd 122, [1-(4-amino-6-{[4-(difluoromethoxy)-3-fluorophenyl]amino}-1,3,5-triazin-2-yl)-1H-benzimidazol-2-yl]acetonitrile]"
11,100 to 3000,"COc1cccc(Nc2nc(N)nc(-n3c(C4CC4)nc4ccccc43)n2)c1 [Cpd 154, 6-(2-cyclopropyl-1H-benzimidazol-1-yl)-N-(3-methoxyphenyl)-1,3,5-triazine-2,4-diamine]"
12,10 to 100,"Nc1nc(Nc2ccc(Br)cc2)nc(-n2c(C3CC3)nc3cc(F)ccc32)n1 [Cpd 222, N-(4-bromophenyl)-6-(2-cyclopropyl-5-fluoro-1H-benzimidazol-1-yl)-1,3,5-triazine-2,4-diamine]"
13,1 to 10,"CCc1nc2ccc(F)cc2n1-c1nc(N)nc(Nc2ccc(C)cc2)n1 [Cpd 169, 6-(2-ethyl-6-fluoro-1H-benzimidazol-1-yl)-N-(4-methylphenyl)-1,3,5-triazine-2,4-diamine]"
14,1 to 10,"COc1ccc(Nc2nc(N)nc(-c3c(C(F)(F)F)nc4ccccn34)n2)cc1F [Cpd 1, N-(3-fluoro-4-methoxyphenyl)-6-[2-(trifluoromethyl)imidazo[1,2-a]pyridin-3-yl]-1,3,5-triazine-2,4-diamine]"
15,100 to 3000,"Cc1cccc(Nc2nc(N)nc(-n3c(C4CC4)nc4ccccc43)n2)c1 [Cpd 156, 6-(2-cyclopropyl-1H-benzimidazol-1-yl)-N-(3-methylphenyl)-1,3,5-triazine-2,4-diamine]"
16,1 to 10,"COc1ccc(Nc2nc(N)nc(-n3c(C)nc4ccccc43)n2)cc1 [Cpd 147, N-(4-methoxyphenyl)-6-(2-methyl-1H-benzimidazol-1-yl)-1,3,5-triazine-2,4-diamine]"
17,10 to 100,"CCc1nc2ccccc2n1-c1cnnc(Nc2ccc(OC(F)F)cc2)n1 [Cpd 203, N-[4-(difluoromethoxy)phenyl]-5-(2-ethyl-1H-benzimidazol-1-yl)-1,2,4-triazin-3-amine]"
18,1 to 10,"COc1ccc(Nc2nc(N)nc(-n3c(C)nc4c(F)cccc43)n2)cc1 [Cpd 179, 6-(4-fluoro-2-methyl-1H-benzimidazol-1-yl)-N-(4-methoxyphenyl)-1,3,5-triazine-2,4-diamine]"
19,100 to 3000,"Cc1nc2ncccc2n1-c1nc(N)nc(Nc2ccc(C(F)(F)F)cc2)n1 [Cpd 17, 6-(2-methyl-1H-imidazo[4,5-b]pyridin-1-yl)-N-[4-(trifluoromethyl)phenyl]-1,3,5-triazine-2,4-diamine]"
20,1 to 10,"Cc1nc2ccccc2n1-c1nc(N)nc(Nc2cnc3ccccc3c2)n1 [Cpd 20, 6-(2-methyl-1H-benzimidazol-1-yl)-N-(quinolin-3-yl)-1,3,5-triazine-2,4-diamine]"
21,10 to 100,"Cc1nc2ccccc2n1-c1nc(N)nc(Nc2ccc(C(F)(F)F)nc2)n1 [Cpd 51, 6-(2-methyl-1H-benzimidazol-1-yl)-N-[6-(trifluoromethyl)pyridin-3-yl]-1,3,5-triazine-2,4-diamine]"
22,1 to 10,"COc1ccc(Nc2nc(N)nc(-n3c(C)nc4c(F)cc(F)cc43)n2)cc1 [Cpd 185, 6-(4,6-difluoro-2-methyl-1H-benzimidazol-1-yl)-N-(4-methoxyphenyl)-1,3,5-triazine-2,4-diamine]"
23,10 to 100,"CCc1nc2ccccc2n1-c1nc(N)nc(Nc2ccc(OC(F)F)c(F)c2)n1 [Cpd 37, N-[4-(difluoromethoxy)-3-fluorophenyl]-6-(2-ethyl-1H-benzimidazol-1-yl)-1,3,5-triazine-2,4-diamine]"
24,100 to 3000,"Cc1nc2c(F)cccc2n1-c1nc(N)nc(Nc2ccc(OC(F)F)c(F)c2)n1 [Cpd 97, N-[4-(difluoromethoxy)-3-fluorophenyl]-6-(4-fluoro-2-methyl-1H-benzimidazol-1-yl)-1,3,5-triazine-2,4-diamine]"
25,10 to 100,"CCc1nc2c(F)cccc2n1-c1nc(N)nc(Nc2ccc(Cl)c(F)c2)n1 [Cpd 215, N-(4-chloro-3-fluorophenyl)-6-(2-ethyl-4-fluoro-1H-benzimidazol-1-yl)-1,3,5-triazine-2,4-diamine]"
26,10 to 100,"CCc1nc2ccc(F)cc2n1-c1nc(N)nc(Nc2ccc(Cl)cc2)n1 [Cpd 170, N-(4-chlorophenyl)-6-(2-ethyl-6-fluoro-1H-benzimidazol-1-yl)-1,3,5-triazine-2,4-diamine]"
27,100 to 3000,"Cc1nc2ccccc2n1-c1nncc(Nc2ccc(C(F)(F)F)cc2)n1 [Cpd 94, 3-(2-methyl-1H-benzimidazol-1-yl)-N-[4-(trifluoromethyl)phenyl]-1,2,4-triazin-5-amine]"
28,10 to 100,"Cc1nc2ccccc2n1-c1nc(NO)nc(Nc2ccc3ncccc3c2)n1 [Cpd 16, N-hydroxy-6-(2-methyl-1H-benzimidazol-1-yl)-N′-(quinolin-6-yl)-1,3,5-triazine-2,4-diamine]"
29,10 to 100,"Nc1nc(Nc2ccc(OC(F)F)cc2)nc(-n2c(C3CC3)nc3c(F)cccc32)n1 [Cpd 86, 6-(2-cyclopropyl-4-fluoro-1H-benzimidazol-1-yl)-N-[4-(difluoromethoxy)phenyl]-1,3,5-triazine-2,4-diamine]"
30,1 to 10,"COc1ccc(Nc2nc(N)nc(-n3c(C4CC4)nc4ccccc43)n2)cc1 [Cpd 153, 6-(2-cyclopropyl-1H-benzimidazol-1-yl)-N-(4-methoxyphenyl)-1,3,5-triazine-2,4-diamine]"

# Source: patent publication US9975878B2, “Substituted triazine BMI-1 inhibitors” (PTC Therapeutics, Inc., priority 2013, dated 2018)
